Laboratory results from patent US5798375A, “Treatment of arteriosclerosis and xanthoma” (Sankyo Company, Limited, priority 1995, dated 1998).

Assays:
[1] = tested on: Male New Zealand white rabbits; experiment: Example 3: regression of established atherosclerotic lesions in the cholesterol-fed rabbit model; assay type: in vivo; conditions: for Rate of lesion area, against the control group: figure in parentheses; for Rate of lesion area: thoracic aorta, two months, mean ± standard error, control 29 ± 20
Experimental: The rabbits were grouped randomly (3-9 animals per group) and the test samples were administered orally for two months, while they were fed with a normolipidaemic diet. […] The results are shown in terms of the percentage of lesion area in the thoracic aorta.

[2] = tested on: Male Fl b hamsters; experiment: Example 4: regression of preformed atherosclerosis in hamsters (Oil Red O stained area); assay type: in vivo; conditions: for Stained Area ORO: aortic arch, 4 weeks, control 1.82 ± 0.44
Experimental: Synergism of HMG CoA reductase inhibitors and thiazolidinedione insulin sensitizers was examined by another regression model, i.e. the regression of preformed atherosclerosis in hamsters. Male Fl b hamsters (weight about 130 g,) were given a diet containing 0.05% cholesterol for 13 weeks. They were grouped randomly (2-7 animals per group), and then the test samples were administered for 4 weeks while the hamsters were given a normolipidaemic diet. Pravastatin and fluvastatin were mixed with drinking water at the dose of 3 mg/kg and 1.5 mg/kg, respectively, while troglitazone was mixed with the diet at the dose of 30 mg/kg or 100 mg/kg.
In the case of the combination groups, the dosage was 3 mg/kg+30 mg/kg or 3 mg/kg+100 mg/kg for the pravastatin+troglitazone group, and 1.5 mg/kg+30 mg/kg for the fluvastatin+troglitazone group.
Namely, the aortic arch was stained with ORO to prepare en face specimens. The percentage area which was positive to the ORO stain over the whole area was measured to represent the degree of aortic lesion.

[3] = tested on: WHHL rabbits; experiment: Example 2: incidence and degree of xanthoma of the four legs; assay type: in vivo, Male WHHL rabbits; parameters: Frequency of massive xanthoma: unit not given here
Experimental: (§1) Each test compound was administered for eight months to the rabbits in the form of an aqueous suspension (0.5% carboxymethylcellulose added). In the control group, a 0.5% carboxymethylcellulose solution only was administered.
The incidence and the degree of xanthoma of the four legs were measured.

[4] = Example 2: serum cholesterol in WHHL rabbits; assay type: in vivo, Male WHHL rabbits; conditions: Groups C and D (pioglitazone 20 mg/kg; Compound A 10 mg/kg)
Experimental: as §1

[5] = tested on: WHHL rabbits; experiment: Example 2: aortic cholesterol content; assay type: in vivo, Male WHHL rabbits
Experimental: as §1
The aortic cholesterol content was measured The tunica media and tunica intima at the aortic arch and at the thoracic and abdominal aorta were peeled away with tweezers and cut into pieces. The pieces were extracted with a 2:1 by volume mixture of chloroform and methanol.
The chloroform phase was separated and evaporated to dryness and the residue was dissolved in isopropanol. The total cholesterol and the free cholesterol were measured by a conventional enzymatic method.
Data are expressed by the mean plus or minus standard error (mg/g tissue). The values in parentheses indicate the percentage against the control. A significant difference against the control group was observed by the unpaired student t-test: […]

[6] = tested on: WHHL rabbits; experiment: Example 2: percentage area covered by lesions, aortic arch and whole aorta; assay type: in vivo, Male WHHL rabbits; parameters: Lesion Area, Aortic Arch, percentage against the control group / Lesion Area, Total Aorta, percentage against the control group: concentration or dose not given beside the values; conditions: oral, eight months
Experimental: as §1
The values actually measured are represented by the mean value plus or minus standard error. The numbers in parentheses represent the percentage lesion area against the control group.
*p<0.05, **p<0.01; significant difference against the control group under the [Mann-Whitney's U-Test A significant difference (p<0.05) was observed between Groups B and F, between Groups C and E and between Groups D and F at the aortic arch, and between Groups C and E over the total aorta.

[7] = tested on: WHHL rabbits; experiment: Example 2: average thickening of intima in aorta; assay type: in vivo, Male WHHL rabbits; parameters: Average thickening of intima, Aortic Arch, percentage against the control group / Average thickening of intima, Total Aorta, percentage against the control group: concentration or dose not given beside the values
Experimental: as §1
The values actually measured are represented as the mean value plus or minus a standard error (μm). The numbers in parentheses represent the percentage intimal thickening against the control group. A significant difference was observed between Groups D and F at the aortic arch, and between Groups C and E and between Groups D and F over the total aorta (p<0.05) under the Mann-Whitney's U-Test.
The average thickening of the intima is calculated by the cross-sectional area of the aortic tunica intima one section from the arch and two sections from the thoracic and abdominal portions, divided by the length of the tunica media.

[8] = tested on: WHHL rabbits; experiment: Example 1: incidence of xanthoma in the digital joints of WHHL rabbits; assay type: in vivo
Experimental: (§2) WHHL rabbits [2-3 months of age, the Watanabe heritable hyperlipidemic rabbit described in Biochimica et Biophysica Acta, 960, 294-302 (1988)] were randomly assigned to a control group (7 animals, group A), a group receiving pravastatin alone (5 animals, Group B), a group receiving troglitazone alone (7 animals, Group C), and a group receiving a combination of both active substances (6 animals, Group D). Pravastatin was administered orally by gavage at a dose of 50 mg/kg/day once-daily and troglitazone was given in the diet, containing 100 mg/kg of the substance for 32 weeks. The ingested amount was limited to a daily 120 g per rabbit. Blood was withdrawn from the animal immediately before starting the study and 4, 8, 12, 16, 20, 24, 28 and 32 weeks after starting the study and the total cholesterol levels (mg/dl) were determined for each blood sample. The levels are reported as a percentage (%) of the levels measured immediately before starting the study. The animals were sacrificed and necropsied at week 32 to examine (a) the percent lesion area (%) in the total, thoracic or abdominal portion of the aorta; (b) the stenosis (%) of the coronary arteries and (c) the incidence (%) of xanthoma in the digital joints.
(§3) The values actually measured are represented as an average value±standard error in those Tables.

[9] = tested on: WHHL rabbits; experiment: Example 1: stenosis of the coronary arteries in WHHL rabbits; assay type: in vivo; conditions: week 32
Experimental: as §2, §3

[10] = Example 1: plasma total cholesterol in WHHL rabbits; assay type: in vivo; conditions: pravastatin 50 mg/kg/day oral gavage, troglitazone in diet containing 100 mg/kg
Experimental: as §2

[11] = tested on: WHHL rabbits; experiment: Example 1: percent lesion area of the aorta in WHHL rabbits; assay type: in vivo; conditions: week 32, mean ± standard error, pravastatin 50 mg/kg/day, troglitazone in diet containing 100 mg/kg, * p < 0.05 vs control
Experimental: as §2, §3

[12] = pravastatin 3 mg/kg, fluvastatin 1.5 mg/kg, troglitazone 30 mg/kg alone, combinations
[13] = oral, eight months, control 100 (14/14), *p < 0.05, **p < 0.01 vs control

SMILES: CC(C)n1c(/C=C/C(O)CC(O)CC(=O)O)c(-c2ccc(F)cc2)c2ccccc21 (centres unmarked) [Fluvastatin]
- Rate of lesion area, against the control group ([1]; 0.08 mg/kg (as printed in Table 9)): 93
- Rate of lesion area, against the control group ([1]; 1.5 mg/kg): 134
- Rate of lesion area ([1]; 0.08 mg/kg (as printed in Table 9) oral): 27 ± 9%
- Rate of lesion area ([1]; 1.5 mg/kg oral): 39 ± 16%
- Stained Area, % of Control ([2]; 1.5 mg/kg): 96%
- Stained Area ORO ([2]; 1.5 mg/kg in drinking water): 1.74 ± 0.49%
- regression of aortic lesions [2, 12]: no regression of aortic lesions

SMILES: CCc1ccc(CCOc2ccc(CC3SC(=O)NC3=O)cc2)nc1 (centres unmarked) [Pioglitazone, 5-{4-[2-(5-ethylpyridin-2-yl)ethoxy]benzyl}-2,4-thiazolidinedione]
- Frequency of massive xanthoma ([3]; control 57, *p < 0.05, **p < 0.01 vs control): 68
- incidence of xanthoma ([3]; forelegs and hindlegs): slightly less frequent incidence of xanthoma
- Distribution of severity of lesion: (-) no lesions ([3]; number of legs, control 0): 2
- Distribution of severity of lesion: (+++) severe lesion ([3]; number of legs, control 6): 8
- Distribution of severity of lesion: (++) moderate lesion ([3]; number of legs, control 10): 11
- Distribution of severity of lesion: (+) slight lesion ([3]; number of legs, control 12): 7
- Incidence of xanthoma, Forelegs [3, 13]: 100%
- Incidence of xanthoma, Hindlegs [3, 13]: 86%
- Incidence of xanthoma, Total ([3]; oral, eight months, control 100 (28/28), *p < 0.05, **p < 0.01 vs control): 93%
- reduction of the serum cholesterol levels [4]: no reduction
- Cholesterol level of Thoracic and Abdominal Aorta, Esterified ([5]; mean ± standard error, control 5.3 ± 1.7): 10.5 ± 3.8 mg/g tissue
- Cholesterol Content of Aortic Arch, Esterified ([5]; mean ± standard error, control 6.5 ± 1.4, *p < 0.05): 6.6 ± 2.7 mg/g tissue
- Cholesterol level of Thoracic and Abdominal Aorta, Free ([5]; mean ± standard error, control 14.8 ± 2.3, *p < 0.05 vs control): 23.4 ± 3.8 mg/g tissue
- Cholesterol level of Thoracic and Abdominal Aorta, Total ([5]; mean ± standard error, control 20.1 ± 2.3, *p < 0.05, **p < 0.02 vs control): 33.9 ± 7.3 mg/g tissue
- Cholesterol Content of Aortic Arch, Free ([5]; mean ± standard error, control 20.6 ± 2.9): 26.9 ± 2.3 mg/g tissue
- Cholesterol Content of Aortic Arch, Esterified, percentage against the control ([5]; number in parentheses): 102%
- Cholesterol Content of Aortic Arch, Free, percentage against the control ([5]; number in parentheses): 131%
- Cholesterol Content of Aortic Arch, Total, percentage against the control ([5]; number in parentheses): 124%
- Cholesterol level of Thoracic and Abdominal Aorta, Esterified, percentage against the control ([5]; number in parentheses): 198%
- Cholesterol level of Thoracic and Abdominal Aorta, Free, percentage against the control ([5]; number in parentheses): 158%
- Cholesterol level of Thoracic and Abdominal Aorta, Total, percentage against the control ([5]; number in parentheses): 169%
- Lesion Area, Aortic Arch, percentage against the control group ([6]; number in parentheses): 88%
- Lesion Area, Total Aorta, percentage against the control group ([6]; number in parentheses): 108%
- Lesion Area, Total Aorta ([6]; pravastatin 50, pioglitazone 20, Compound A 10 mg/kg, mean ± standard error, *p<0.05, **p<0.01 vs control): 54 ± 8%
- Lesion Area, Aortic Arch ([6]; pravastatin 50, pioglitazone 20, Compound A 10 mg/kg, mean ± standard error, control 82 ± 5, *p<0.05, **p<0.01 vs control): 72 ± 10%
- suppression of intimal thickening ([7]; combinations compared with Groups C and D): no suppression of hypertrophy
- Average thickening of intima, Aortic Arch, percentage against the control group ([7]; number in parentheses): 103%
- Average thickening of intima, Total Aorta, percentage against the control group ([7]; number in parentheses): 115%
- Average thickening of intima in aorta, Total Aorta ([7]; oral, eight months, pravastatin 50, pioglitazone 20, Compound A 10 mg/kg, mean ± standard error, control 154 ± 33): 177 ± 26 μm
- Average thickening of intima in aorta, Aortic Arch ([7]; oral, eight months, pravastatin 50, pioglitazone 20, Compound A 10 mg/kg, mean ± standard error, control 237 ± 63): 245 ± 37 μm

SMILES: Cc1c(C)c2c(c(C)c1O)CCC(C)(COc1ccc(CC3SC(=O)NC3=O)cc1)O2 (centres unmarked) [Troglitazone, 5-{4-[(6-hydroxy-2,5,7,8-tetramethyl-chroman-2-yl)methoxy]benzyl}-2,4-thiazolidinedione]
- Incidence of xanthoma, Foreleg ([8]; week 32, control 100 (14/14)): 86%
- Incidence of xanthoma, Hind leg ([8]; week 32, control 100 (14/14)): 29%
- Incidence of xanthoma, Total ([8]; week 32, control 100 (28/28)): 57%
- Coronary stenosis, RCA (right coronary artery) ([9]; control 13): 7%
- Coronary stenosis, LAD (left anterior descending artery) ([9]; control 24): 11%
- Coronary stenosis, LSP (left septal artery) ([9]; control 40): 31%
- Coronary stenosis, LCX (left circumflex artery) ([9]; control 47): 39%
- Coronary stenosis, MLC (main left coronary artery) ([9]; control 61): 59%
- Coronary stenosis, MRC (main right coronary artery) ([9]; control 79): 83%
- total cholesterol level, % of level before starting the study ([10]; week 4): 88%
- total cholesterol level, % of level before starting the study ([10]; week 8): 89%
- total cholesterol level, % of level before starting the study ([10]; week 12): 78%
- total cholesterol level, % of level before starting the study ([10]; week 16): 83%
- total cholesterol level, % of level before starting the study ([10]; week 20): 72%
- total cholesterol level, % of level before starting the study ([10]; week 24): 73%
- total cholesterol level, % of level before starting the study ([10]; week 28): 77%
- total cholesterol level, % of level before starting the study ([10]; week 32): 76%
- Rate of lesion area, against the control group ([1]; 10 mg/kg): 79
- Rate of lesion area ([1]; 10 mg/kg oral): 23 ± 7%
- Stained Area, % of Control ([2]; 30 mg/kg): 109%
- Stained Area, % of Control ([2]; 100 mg/kg): 58%
- Stained Area ORO ([2]; 30 mg/kg in diet): 1.99 ± 0.40%
- Stained Area ORO ([2]; 100 mg/kg in diet): 1.05 ± 0.64%
- regression of aortic lesions [2, 12]: no regression of aortic lesions
- regression of aortic lesions ([2]; troglitazone alone, 100 mg/kg): regression was observed
- Lesion area, Abdominal aorta ([11]; control 29.9 ± 4.4): 27.6 ± 7.0%
- Lesion Area, Total Aorta ([11]; control 65.7 ± 3.9): 51.7 ± 7.7%
- Lesion area, Thoracic aorta ([11]; control 79.3 ± 5.4): 57.9 ± 9.9%
